{
  "source": "patent US6139862A",
  "about": "“Pharmaceutical dipeptide compositions and methods of use thereof” (priority 1998, dated 2000)",
  "settings": "in vivo",
  "from_the_text": "Due to its simple nature, the dipeptide is rather inexpensive to manufacture.",
  "data": [
    {"molecule": "CC[C@H](C)[C@H](N)C(=O)N[C@@H](Cc1c[nH]c2ccccc12)C(=O)O", "note": "[Ile-Trp, L-Ile-L-Trp]", "values": [
      {"measurement": "significant side effects from the use of the dipeptide", "result": "not found any significant side effects"}
    ]}
  ]
}
